{
  "source": "patent US20220370322A1",
  "about": "“UV BLOCKING COMPOSITION COMPRISING RED ALGAE-DERIVED FLORIDOSIDE AND AMINE GROUP-CONTAINING COMPOUND” (ATHENA CO., LTD., priority 2019, published 2022)",
  "key": {"Raw 264.7 cells": {"test_system": "Raw 264.7 cells", "assay": "Cytotoxicity test (Cell Counting Kit-8)", "assay_type": "cell-based", "conditions": "for Viability (%): 24 hours, CCK-8; for Absorbance AVERAGE: absorbance at 450 nm, mean of three; for Absorbance: single replicates, measured at 450 nm", "experimental": "A cytotoxicity test was performed on the sample, which had been identified to be floridoside, by using the Cell Counting Kit-8 kit (DOJINDO, CK04-05).\nRaw 264.7 cells were cultured at 1×10^4 cells/well in a DMEM medium containing 10% FBS in a 96-well plate at 37° C. in 5% CO2 incubator for 24 hours, and then treated with a drug. After the cells were cultured at 37° C. in the 5% CO2 incubator for 24 hours, CCK-8 solution was added, followed by incubation at 37° C. for 2 hours, and then the absorbance was measured at 450 nm."}, "skin": {"test_system": "skin", "assay": "Primary patch test for human body application (skin irritation, ICDRG criteria)", "assay_type": "in vivo", "design": "key to Mean score of the skin reaction: mean of ICDRG-graded reactions via skin reaction formula", "conditions": "31 subjects", "experimental": "A primary patch test for human body application was performed on the sample.\nSubjects of the test were determined for skin irritation by a dermatologist a total of 4 times (the date of a patch, the date of removal of the patch, and 24 hours and 120 hours after removal of the patch) during the test period.\nThe skin patch test was performed using the Van der Bend chamber (Van der Bend, Brielle, the Netherlands). For each of 31 subjects, the sample was applied between the shoulder blade and the waist line on the basis of the spin on the back by using the Van der Bend chamber.\nA site of the test was washed with distilled water and dried, and then the sample was dissolved in 10% distilled water. Thereafter, 35 μl was dropped in the Van der Bend chamber, which was then put and fixed on the site of the test. The sample was patched on the skin for 48 hours, and after the removal of the patch, the site of the test was marked with a marking pen, and the site of the test was observed after 30 minutes, 24 hours, and 120 hours.\nWith respect to the skin reaction, the degrees of irritation were classified according to the evaluation criteria of the International Contact Dermatitis Research Group (ICDRG) as shown in Table 2 below.\nThe mean score of the skin reaction was calculated by the skin reaction calculation formula, and then the presence or absence of irritation was determined according to the decision table of the skin patch test."}},
  "note": "Values joined by “and” are separate entries in the source; they are usually repeats but may differ in a detail not shown here. Identical values can stand only once.",
  "data": [
    {"smiles": "OCC(CO)O[C@H]1O[C@H](CO)[C@H](O)[C@H](O)[C@H]1O", "note": "[Floridoside, 2-O-α-D-galactopyranosylglycerol]", "values": [
      {"measurement": "Viability (%)", "setting": "Raw 264.7 cells; 1 ppm, Raw 264.7 cells", "value": 83, "unit": "%"},
      {"measurement": "Absorbance AVERAGE", "setting": "Raw 264.7 cells; 1 ppm", "value": 2.594},
      {"measurement": "Absorbance", "setting": "Raw 264.7 cells; 1 ppm", "value": "2.73 and 2.59 and 2.47"},
      {"measurement": "Viability (%)", "setting": "Raw 264.7 cells; 10 ppm, Raw 264.7 cells", "value": 88, "unit": "%"},
      {"measurement": "Absorbance AVERAGE", "setting": "Raw 264.7 cells; 10 ppm", "value": 2.746},
      {"measurement": "Absorbance", "setting": "Raw 264.7 cells; 10 ppm", "value": "2.69 and 2.73 and 2.81"},
      {"measurement": "Viability (%)", "setting": "Raw 264.7 cells; 100 ppm, Raw 264.7 cells", "value": 88, "unit": "%"},
      {"measurement": "Absorbance AVERAGE", "setting": "Raw 264.7 cells; 100 ppm", "value": 2.759},
      {"measurement": "Absorbance", "setting": "Raw 264.7 cells; 100 ppm", "value": "2.68 and 2.79 and 2.81"},
      {"measurement": "Viability (%)", "setting": "Raw 264.7 cells; 500 ppm, Raw 264.7 cells", "value": 89, "unit": "%"},
      {"measurement": "Absorbance AVERAGE", "setting": "Raw 264.7 cells; 500 ppm", "value": 2.790},
      {"measurement": "Absorbance", "setting": "Raw 264.7 cells; 500 ppm", "value": "2.72 and 2.8 and 2.85"},
      {"measurement": "Viability (%)", "setting": "Raw 264.7 cells; 1000 ppm, Raw 264.7 cells", "value": 89, "unit": "%"},
      {"measurement": "Absorbance AVERAGE", "setting": "Raw 264.7 cells; 1000 ppm", "value": 2.781},
      {"measurement": "Absorbance", "setting": "Raw 264.7 cells; 1000 ppm", "value": "2.75 and 2.77 and 2.82"},
      {"measurement": "Cell protective effect", "setting": "Raw 264.7 cells; Raw 264.7 cells, 1-1000 ppm, conclusion in words", "value": "excellent cell protective effect"},
      {"measurement": "Determination (skin patch test)", "setting": "skin; decision table of the skin patch test", "value": "No irritation"},
      {"measurement": "Mean score of the skin reaction", "setting": "skin; skin reaction calculation formula", "value": 0.00},
      {"measurement": "Degree of reaction + (first line), number of subjects", "setting": "skin; After 30 minutes", "value": 0},
      {"measurement": "Degree of reaction + (second line), number of subjects", "setting": "skin; After 30 minutes", "value": 0},
      {"measurement": "Degree of reaction +++, number of subjects", "setting": "skin; After 30 minutes", "value": 0},
      {"measurement": "Degree of reaction ++, number of subjects", "setting": "skin; After 30 minutes", "value": 0},
      {"measurement": "Degree of reaction + (first line), number of subjects", "setting": "skin; After 24 hours", "value": 0},
      {"measurement": "Degree of reaction + (second line), number of subjects", "setting": "skin; After 24 hours", "value": 0},
      {"measurement": "Degree of reaction +++, number of subjects", "setting": "skin; After 24 hours", "value": 0},
      {"measurement": "Degree of reaction ++, number of subjects", "setting": "skin; After 24 hours", "value": 0},
      {"measurement": "Degree of reaction + (first line), number of subjects", "setting": "skin; After 120 hours", "value": 0},
      {"measurement": "Degree of reaction + (second line), number of subjects", "setting": "skin; After 120 hours", "value": 0},
      {"measurement": "Degree of reaction +++, number of subjects", "setting": "skin; After 120 hours", "value": 0},
      {"measurement": "Degree of reaction ++, number of subjects", "setting": "skin; After 120 hours", "value": 0}
    ]}
  ]
}
